This note sets out measurements from paper PMC6934184, “Selective DNA-PKcs inhibition extends the therapeutic index of localized radiotherapy and chemotherapy” (The Journal of Clinical Investigation, 2019).

For the assay, the target named is T1, MARK1 (MARK) (Homo sapiens, UniProt Q9P0L2).
T1 construct: purchased Thermo Fisher Scientific (Life Technologies) SelectScreen
Kind of assay: SelectScreen Z'LYTE. The class given is biochemical. Summed up:
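NU5455 was profiled across the SelectScreen Broad panel of kinase activity and binding assays. Z'LYTE reactions such as CSF1R ran at apparent Km ATP, while the Adapta CAMK1 assay used ATP listed as 10. Values are given as percent.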

Molecules are shown by their SMILES.

T1 sequence (Q9P0L2 whole entry): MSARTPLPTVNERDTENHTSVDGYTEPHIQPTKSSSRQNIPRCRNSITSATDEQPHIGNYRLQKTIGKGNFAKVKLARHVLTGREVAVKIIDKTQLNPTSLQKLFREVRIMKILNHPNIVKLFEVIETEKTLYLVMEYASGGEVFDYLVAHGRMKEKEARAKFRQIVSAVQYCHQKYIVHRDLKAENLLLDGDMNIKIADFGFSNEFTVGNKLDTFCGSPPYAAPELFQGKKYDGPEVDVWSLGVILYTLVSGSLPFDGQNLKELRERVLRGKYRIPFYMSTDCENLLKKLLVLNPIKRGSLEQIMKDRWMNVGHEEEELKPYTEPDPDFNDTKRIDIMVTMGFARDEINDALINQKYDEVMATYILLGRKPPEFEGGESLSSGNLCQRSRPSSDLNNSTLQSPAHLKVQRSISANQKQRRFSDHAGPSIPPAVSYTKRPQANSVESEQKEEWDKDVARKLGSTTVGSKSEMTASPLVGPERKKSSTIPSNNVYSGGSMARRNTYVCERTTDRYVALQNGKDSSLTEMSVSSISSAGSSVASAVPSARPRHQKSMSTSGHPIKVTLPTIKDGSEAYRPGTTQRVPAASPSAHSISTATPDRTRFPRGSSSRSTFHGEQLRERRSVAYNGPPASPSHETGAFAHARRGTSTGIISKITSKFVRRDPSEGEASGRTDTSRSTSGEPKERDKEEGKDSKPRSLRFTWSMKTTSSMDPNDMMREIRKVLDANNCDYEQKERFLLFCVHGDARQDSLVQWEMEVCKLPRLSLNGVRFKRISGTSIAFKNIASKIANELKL

`CN(C(=O)CN1CCOCC1)c1ccc2sc3c(-c4cccc5c(=O)cc(N6CC7CCC(C6)O7)oc45)cccc3c2c1` [NU5455]: 1 µM produced 5.1% inhibition.

The inhibition is the share of the control response that was lost under treatment. A low value points to a response near the control.
